Source: ChEMBL document CHEMBL1134938, “Inhibition of HIV-1 nuclear import via schiff base formation with arylene bis(methylketone) compounds” (Bioorg Med Chem Lett, 2002)

Tests used:
[1] = system: Human immunodeficiency virus 1; assay: Concentration required to block the Nuclear translocation of HIV-1 pre-integration complex with Reverse Transcriptase protein; format: functional, organism-based
[2] = system: Human immunodeficiency virus 1; assay: Concentration required to block the Nuclear translocation of HIV-1 pre-integration complex with Reverse Transcriptase protein; NA: Not Active; format: functional, organism-based

| IC50 [1] [nM] | IC50 [2] | Compound |
| --- | --- | --- |
| 100 |  | Cc1cc(Nc2cc(C(=O)O)cc(C(=O)O)c2)nc(N)[n+]1C |
| 100 |  | CC(=O)c1cc(Nc2cc(C)[n+](C)c(N)n2)cc(C(C)=O)c1 |
|  | Not Active | Cc1cc(Nc2cc(C(C)O)cc(C(C)O)c2)nc(N)[n+]1C (centres undefined) |
|  | Not Active | COC(=O)c1cc(Nc2cc(C)[n+](C)c(N)n2)cc(C(=O)OC)c1 |
